Values of other authors as cited in patent EP4603080A1 (Adocia, priority 2024, dated 2025).

Conditions: read-out: EC50value; potency, WO2022129526 Assay 2, Tables 4b and 4c

- EC50: ~0.011 nM
Substance: N-alpha-[(S)-4-Carboxy-4-(19-carboxynonadecanoylamino)butyryl]-[Glu14,Arg17,Pro37]-pramlintide [cagrilintide]
